According to patent publication US11655210B2, “Compound for improving L-arginine bioavailability” (The General Hospital Corporation, priority 2018, dated 2023):
Read-outs that look alike come from different tables or passages of the source.

What was measured:
[1] = tested on: NO production in Human Brain Microvascular Endothelial Cells (HBMVEC); assay: In vitro NO detection assay (Nitric Oxide Cell-Based HTS Assay); details: 100 nM to 0.5 mM, analyzed every 15 mins for 1 h, Example 1 versus L-arginine, FIGS. 3-4
Protocol: “A” Bars: […]; “B” bars: 10 μM; “C” bars: 100 μM; “D” bars: 0.5 mM.
The following general procedures were performed for the NO detection assay. See, e.g., Nitric Oxide Cell-Based HTS Assay Kit technical data sheet, Biovision Incorporated; Catalog #K979-10, September 2016, the disclosure of which is incorporated herein by reference in its entirety.
1. Performed cell culture protocol as described in Example 2.
2. Warmed all reagents in 37° C. water bath.
3. Master mix: 3 μL dye to 1.5 mL of Assay buffer for at least 60 wells.
4. Standard curve master mix: 5 μL NO stock solution to 95 μL NO Buffer for at least 60 wells.
5. Media was aspirated from column 1B-1G before aliquoting standard curve solution, as shown below in Table 2.
6. Media was aspirated from 2B-2G through 6B-G before 50 μL aliquots of staining dye. This step was repeated for […] through 10B-10G.
7. Plates were incubated for 1 hour in 37° C.
8. After 1 hour, plates were transferred back into sterile conditions and washed 2× with EndoGro Media (previously warmed to 37° C.) before aliquoting the concentrations shown in Table 3 into each well.
9. Plates were incubated at 37° C. and analyzed every 15 mins for 1 h.

[2] = tested on: Human Brain Microvascular Endothelial Cells (HBMVEC); assay: CellTox Green 24-hour dose dependent cytotoxicity assay; assay type: cell-based; details: for toxicity in the cellular model: 100 nM, 10 μM, 100 μM, 0.5 mM
Protocol: Cell cultures were prepared using the following general procedures.
1. Under aseptic conditions 1×20 mm sterile tissue culture dish was coated with sterile 1:100 collagen for two hours at room temperature.
2. Under aseptic conditions 2× sterile 96 well-plates were coated with sterile 50 μL 1:100 collagen for two hours at room temperature.
3. After 2 hr collagen was recollected into 50 mL conical tube.
4. The petri dish and 2×96 well-plates were washed with warmed PBS.
5. Once 60% confluency of HBMVEC was observed, the plate was prepped for passage.
6. Media was aspirated from dish and washed with 1×PBS.
7. 1 mL of Trypsin was added, and the plate was transferred to 37° C. incubator for 1-2 min until cells appeared detached.
8. The plate was transferred back into sterile conditions and 2 mL of EndoGro Basal Media was added to inhibit Trypsin reaction.
9. Cells were pipetted 20× and thoroughly mixed before transferring into 25 mL of EndoGro Basal Media.
10. 100 μL of this mixture was added into each well both 96 well-plate.
11. Left over 5.8 mL of cell solution was transferred to petri dish previously coated with collagen and washed with 1×PBS.
12. Plates were incubated for 48 hours at 37° C.
The following procedures were performed for the cell cytotoxicity assay (CellTox™ Green Cytotoxicity Assay; Promega Corporation). See also CellTox™ Green Cytotoxicity Assay, Instructions for Use of Products G8741, G8742, G8743, and G8731, revised May 2015, the disclosure of which is incorporated herein by reference in its entirety.
1. Samples containing 1:1000 L-Arginine (L-Arg; 100 nM, 10 μM, 100 μM, or 0.5 mL) or 1:1000 of 2-amino-5-guanidino-N-(4-guanidinobutyl)pentanamide (Example 1; 100 nM, 10 μM, 100 μM, or 0.5 mL) were prepared with EndoGro Basal Media without supplements (MWOS) into sterile 10×1 mL microcentrifuge tubes. For concentrations of 0, 1:1000 PBS to MWOS was made.
2. […]
4. Once the wells were treated, plates were incubated at 37° C. for 24 hours and analyzed at 485-500 nm/520-530 nm after cytotoxicity assay treatment.

[3] = cited from earlier work; for baseline plasma concentration of L-arginine: normal diet over 8 hours

N=C(N)NCCCCNC(=O)C(N)CCCNC(=N)N (centres unmarked) [Example 1, 2-amino-5-guanidino-N-(4-guanidinobutyl)pentanamide]
capacity for mediating NO production [1]: nearly identical capacity for mediating NO production
toxicity in the cellular model [2]: non-toxic
toxicity in comparison to L-arginine ([2]; FIG. 2): no significant difference in toxicity

N=C(N)NCCC[C@H](N)C(=O)O [L-arginine]
baseline plasma concentration of L-arginine ([3]; converted value): ~86.7 µM
baseline plasma concentration of L-arginine [3]: about 15.1±2.6 μg/mL
peak concentration ([3]; single oral 10 g dose, converted value): ~287.0 µM
absolute bioavailability ([3]; single oral 10 g dose): about 20%
peak concentration ([3]; single oral 10 g dose): 50.0 µg/mL
time of peak concentration after administration ([3]; single oral 10 g dose): 1 h
capacity for mediating NO production [1]: nearly identical capacity for mediating NO production
toxicity in the cellular model [2]: non-toxic
